Experimental data taken from US20080119467A1, “Purine Derivatives, Compositions Containing Them and Use Thereof” (AVENTIS PHARMA S.A., priority 2005, published 2008).
Counter-ions that a name gives are not always drawn.

target: Hsp82 (Saccharomyces cerevisiae, UniProt P02829); test: Inhibition of the ATPase activity of Hsp82 in the enzymatic coupling system (pyruvate kinase / lactate dehydrogenase); type: biochemical; conditions: ATPase activity of Hsp82, PK/LDH enzymatic coupling system, 1 μM Hsp82, 250 μM ATP, 37° C., 340 nm
Description: The formation of ADP due to the ATPase activity of Hsp82 was utilized for developing another method for evaluating the enzymatic activity of this enzyme by the application of an enzymatic coupling system employing pyruvate kinase (PK) and lactate dehydrogenase (LDH). In this spectrophotometric method of the kinetic type, the PK catalyzes the formation of ATP and pyruvate from phosphenol-pyruvate (PEP) and of ADP produced by HSP82. The pyruvate formed, which is a substrate of LDH, is then converted to lactate in the presence of NADH. In this case, the decrease in the concentration of NADH, measured from the decrease in absorbance at a wavelength of 340 nm, is proportional to the concentration of ADP produced by HSP82. The test products are incubated in a reaction volume of 100 μl of compound buffer of 100 mM Hepes-NaOH (pH 7.5), 5 mM MgCl2, 1 mM DTT, 150 mM KCl, 0.3 mM NADH, 2.5 mM PEP and 250 μM ATP. This mixture is preincubated at 37° C. for 30 min before adding 3.77 units of LDH and 3.77 units of PK. The reaction is initiated by addition of the product to be evaluated, at variable concentrations, and of Hsp82, at a concentration of 1 μM. Then the enzymatic activity of Hsp82 is measured, continuously, in a microplate reader, at 37° C., at a wavelength of 340 nm. The initial rate of the reaction is obtained by measuring the slope of the tangent of the recorded curve to the origin. The enzymatic activity is expressed as μM of ADP formed per minute. The effect of the various products tested is expressed as percentage inhibition of the ATPase activity. The inhibitory activities on the ATPase activity of Hsp82 obtained with the products of the invention in the enzymatic coupling system are presented in the following table, according to the following criteria of inhibition of the ATPase activity of Hsp82: […]

Hsp82, sequence (P02829 whole entry): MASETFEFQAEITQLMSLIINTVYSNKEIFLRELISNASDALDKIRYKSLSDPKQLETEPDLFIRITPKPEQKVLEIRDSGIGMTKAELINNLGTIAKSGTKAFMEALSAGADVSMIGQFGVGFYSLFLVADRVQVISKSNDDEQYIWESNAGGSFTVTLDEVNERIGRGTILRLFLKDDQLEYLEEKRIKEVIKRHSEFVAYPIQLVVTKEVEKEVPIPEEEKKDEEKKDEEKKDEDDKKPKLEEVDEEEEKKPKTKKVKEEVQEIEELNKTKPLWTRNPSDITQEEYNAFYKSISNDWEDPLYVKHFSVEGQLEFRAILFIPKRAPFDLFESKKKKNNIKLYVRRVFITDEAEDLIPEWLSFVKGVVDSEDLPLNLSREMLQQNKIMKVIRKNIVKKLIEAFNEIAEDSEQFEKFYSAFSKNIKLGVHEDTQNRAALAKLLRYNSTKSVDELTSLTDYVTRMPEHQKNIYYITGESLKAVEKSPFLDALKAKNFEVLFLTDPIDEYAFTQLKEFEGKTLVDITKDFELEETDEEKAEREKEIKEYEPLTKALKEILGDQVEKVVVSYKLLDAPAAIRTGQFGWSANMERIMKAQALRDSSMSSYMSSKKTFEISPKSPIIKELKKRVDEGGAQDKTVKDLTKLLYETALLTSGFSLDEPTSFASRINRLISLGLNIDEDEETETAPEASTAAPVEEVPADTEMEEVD

| IC50 [µM] | SMILES |
| --- | --- |
| 1 to 10 | Clc1nc(N2CCN(c3cccnc3)CC2)c2nc[nH]c2n1 [Example 11, 2-chloro-6-[4-(pyridin-3-yl)-piperazin-1-yl]1H-purine] |
| < 1 | Cl.Clc1cc(N2CCN(c3ccccn3)CC2)c2nc[nH]c2n1 [Example 30, 5-Chloro-7-(4-pyridin-2-yl-piperazin-1-yl)-3H-imidazo[4,5-b]pyridine monohydrochloride] |
| 10 to 100 | Clc1nc(NC2CCCC2)c2nc[nH]c2n1 [Example 7, 2-chloro-6-cyclopentylamino-1H-purine] |
| < 1 | Cl.Clc1nc(N2CCN(Cc3ccccc3)CC2)c2nc[nH]c2n1 [Example 1, 2-Chloro-6-[4-(phenylmethyl)-piperazin-1-yl]-1H-purine monohydrochloride] |
| 10 to 100 | COc1cc(C(=O)N2CCN(c3nc(Cl)nc4[nH]cnc34)CC2)cc(OC)c1OC [Example 14, 2-chloro-6-[4-(3,4,5-trimethoxy-phenyl)carbonyl-piperazin-1-yl]1H-purine] |
| 1 to 10 | Clc1nc(N2CCN(C(c3ccccc3)c3ccccc3)CC2)c2nc[nH]c2n1 [Example 6, 2-chloro-6-[4-(diphenylmethyl)-piperazin-1-yl]1H-purine] |
| 1 to 10 | Fc1nc(N2CCN(c3ccccn3)CC2)c2nc[nH]c2n1 [Example 23, 2-Fluoro-[4-(pyridin-2-yl)-piperazin-1-yl]1H-purine] |
| 1 to 10 | O=C(c1ccccc1)N1CCN(c2nc(Cl)nc3[nH]cnc23)CC1 [Example 15, 2-chloro-6-[4-(phenyl)carbonyl-piperazin-1-yl]1H-purine] |
| < 1 | Clc1nc(N2CCC(Cc3ccccc3)CC2)c2nc[nH]c2n1 [Example 8, 2-Chloro-6-[4-(phenylmethyl)-piperidin-1-yl]-1H-purine monohydrochloride] |
| 10 to 100 | COc1ccc(CN2CCN(c3nc(Cl)nc4[nH]cnc34)CC2)cc1OC [Example 10, 2-chloro-6-[4-(3,4-dimethoxy-phenyl)methyl-piperazin-1-yl]1H-purine] |
| 1 to 10 | Clc1nc(N2CCN(c3ccccc3)CC2)c2nc[nH]c2n1 [Example 9, 2-Chloro-6-(4-phenyl-piperazin-1-yl)-1H-purine monohydrochloride] |
| < 1 | Clc1nc(N2CCN(c3ccc4ccccc4n3)CC2)c2nc[nH]c2n1 [Example 21, 2-Chloro-6-[4-(quinolein-2-yl)-piperazin-1-yl]-1H-purine monohydrochloride] |
| < 1 | OCc1cc(F)ccc1N1CCN(c2nc(Cl)nc3[nH]cnc23)CC1 [Example 26, {2-[4-(2-Chloro-9H-purin-6-yl)-piperazin-1-yl]-5-fluoro-phenyl}-methanol] |
| < 1 | Clc1nc(N2CCN(c3ncccn3)CC2)c2nc[nH]c2n1 [Example 19, 2-Chloro-6-[4-(pyrimidin-2-yl)-piperazin-1-yl]-1H-purine monohydrochloride] |
| < 1 | Clc1nc(N2CCC(Nc3ccccc3)CC2)c2nc[nH]c2n1 [Example 16, 2-Chloro-6-[4-(phenylamino)-piperidin-1-yl]-1H-purine monohydrochloride] |
| 10 to 100 | Clc1cccc(N2CCN(c3nc(Cl)nc4[nH]cnc34)CC2)c1 [Example 13, 2-Chloro-6-[4-(3-chloro-phenyl)-piperazin-1-yl]1H-purine] |
| 1 to 10 | Clc1nc(N2CCOCC2)c2nc[nH]c2n1 [Example 3, 2-chloro-6-(morpholin-4-yl)-1H-purine] |
| 1 to 10 | NC(=O)c1cccc(N2CCN(c3nc(Cl)nc4[nH]cnc34)CC2)c1 [Example 12, 2-chloro-6-[4-(3-carboxamido-phenyl)-piperazin-1-yl]1H-purine] |
| 1 to 10 | Clc1nc(N2CCN(Cc3ccccc3)CC2)c2cc[nH]c2n1 [Example 28, 4-(4-Phenylmethyl-piperazin-1-yl)-2-chloro-7H-pyrrolo[2,3-d]pyrimidine] |
| 1 to 10 | Cc1cccc(N2CCN(c3nc(Cl)nc4[nH]cnc34)CC2)n1 [Example 18, 2-Chloro-6-[4-(6-methyl-pyridin-2-yl)-piperazin-1-yl]-1H-purine monohydrochloride] |
| 1 to 10 | FC(F)(F)c1ccccc1N1CCN(c2nc(Cl)nc3[nH]cnc23)CC1 [Example 22, 2-chloro-6-[4-(2-trifluoromethyl-phenyl)-piperazin-1-yl]1H-purine] |
| < 1 | Clc1nc(N2CCN(c3ccccn3)CC2)c2nc[nH]c2n1 [Example 2, 2-chloro-6-[4-(pyridin-2-yl)-piperazin-1-yl]1H-purine] |
| 10 to 100 | COc1ccccc1N1CCN(c2nc(Cl)nc3[nH]cnc23)CC1 [Example 20, 2-Chloro-6-[4-(2-methoxy-phenyl)-piperazin-1-yl]-1H-purine monohydrochloride] |
| < 1 | NC(=O)c1ccccc1N1CCN(c2cc(Cl)nc3[nH]cnc23)CC1 [Example 31, 2-[4-(5-Chloro-3H-imidazo[4,5-b]pyridin-7-yl)-piperazin-1-yl]-benzamide] |
| < 1 | Clc1nc(N2CCCCC2)c2nc[nH]c2n1 [Example 5, 2-chloro-6-(piperidin-1-yl)-1H-purine] |
| 1 to 10 | Clc1nc(N2CCSCC2)c2nc[nH]c2n1 [Example 4, 2-chloro-6-(thiamorpholin-4-yl)-1H-purine] |
| < 1 | NC(=O)c1cccnc1N1CCN(c2nc(Cl)nc3[nH]cnc23)CC1 [Example 27, 2-[4-(2-Chloro-9H-purin-6-yl)-piperazin-1-yl]-nicotinamide] |
| < 1 | Clc1nc(N2CCN(c3ccccn3)CC2)c2cc[nH]c2n1 [Example 29, 2-Chloro-4-(4-pyridin-2-yl-piperazin-1-yl)-7H-pyrrolo[2,3-d]pyrimidine] |
| 1 to 10 | FC(F)(F)c1cccnc1N1CCN(c2nc(Cl)nc3[nH]cnc23)CC1 [Example 24, 2-Chloro-6-[4-(3-trifluoromethyl-pyridin-2-yl)-piperazin-1-yl]-9H-purine] |

tested on: not given; test: not given; conditions: not given

| melting point [°C] | SMILES |
| --- | --- |
| > 260 | Cl.Clc1cc(N2CCN(c3ccccn3)CC2)c2nc[nH]c2n1 [Example 30, 5-Chloro-7-(4-pyridin-2-yl-piperazin-1-yl)-3H-imidazo[4,5-b]pyridine monohydrochloride] |
| 264 to 266 | Cl.Clc1nc(N2CCN(Cc3ccccc3)CC2)c2nc[nH]c2n1 [Example 1, 2-Chloro-6-[4-(phenylmethyl)-piperazin-1-yl]-1H-purine monohydrochloride] |
| > 260 | Fc1nc(N2CCN(c3ccccn3)CC2)c2nc[nH]c2n1 [Example 23, 2-Fluoro-[4-(pyridin-2-yl)-piperazin-1-yl]1H-purine] |
| > 260 | Clc1cccc(N2CCN(c3nc(Cl)nc4[nH]cnc34)CC2)c1 [Example 13, 2-Chloro-6-[4-(3-chloro-phenyl)-piperazin-1-yl]1H-purine] |
| 250 | Clc1nc(N2CCN(Cc3ccccc3)CC2)c2cc[nH]c2n1 [Example 28, 4-(4-Phenylmethyl-piperazin-1-yl)-2-chloro-7H-pyrrolo[2,3-d]pyrimidine] |
